Reference: patent publication US8802664B2 (Bioproject, priority 2010, dated 2014)
Structures can show the parent of a compound that is named as a salt.

melting point	Structure (SMILES)
90 °C	CN1CCC(OC(c2cccc(CCCCCNC(=N)N)c2)c2nc3ccccc3s2)CC1 (stereo not drawn) (as salt: hydrochloride) [Example 365, N-(5-{3-[benzothiazol-2-yl(1-methylpiperidin-4-yloxy)methyl]phenyl}pentyl)guanidine]
110 °C	Cc1ccc(C(OC2CCN(C)CC2)c2nc3ccccc3o2)c(F)c1 (stereo not drawn) (as salt: oxalate) [Example 545]
117 °C	CN1CCC(OC(c2cccc(OCC=CCN)c2)c2nc3ccccc3s2)CC1 (stereo not drawn) (as salt: oxalate) [Example 431, 4-{3-[benzothiazol-2-yl(1-methylpiperidin-4-yloxy)methyl]phenoxy}but-2-enylamine]
102 °C	CN1CCC(OC(c2cccc(OCc3cccnc3)c2)c2nc3ccccc3s2)CC1 (stereo not drawn) (as salt: oxalate) [Example 284, 2-{(1-methylpiperidin-4-yloxy)[3-(pyridin-3-ylmethoxy)phenyl]methyl}benzothiazole]
137 °C	CN1CCC(OC(c2cccc(N3CCC(N)C3)c2)c2nc3ccccc3s2)CC1 (stereo not drawn) (as salt: oxalate) [Example 429, 1-{3-[benzothiazol-2-yl(1-methylpiperidin-4-yloxy)methyl]phenyl}pyrrolidin-3-ylamine]
106 °C	CN1CCC(OC(c2cccc(N3CCC(O)C3)c2)c2nc3ccccc3s2)CC1 (stereo not drawn) (as salt: oxalate) [Example 407, 1-{3-[benzothiazol-2-yl(1-methylpiperidin-4-yloxy)methyl]phenyl}pyrrolidin-3-ol]
45 °C	CN1CCC(OC(c2cccc(OCCO)c2)c2nc3ccccc3s2)CC1 (stereo not drawn) (as salt: oxalate) [Example 244, 2-{3-[benzothiazol-2-yl(1-methylpiperidin-4-yloxy)methyl]phenoxy}ethanol]
185 °C	CN1CCC(OC(c2ccc(N)cc2)c2nc3ccccc3[nH]2)CC1 (stereo not drawn) (as salt: hydrochloride) [Example 455, 4-[(1H-benzimidazol-2-yl)(1-methylpiperidin-4-yloxy)methyl]aniline]
192 °C	CN1CCC(OC(c2ccc(F)cc2)c2nc3ccccc3s2)CC1 (stereo not drawn) (as salt: oxalate) [Example 3, 2-[(4-fluorophenyl)(1-methylpiperidin-4-yloxy)methyl]benzothiazole]
106 °C	CN1CCC(OC(c2cccc(N3CCC(CO)C3)c2)c2nc3ccccc3s2)CC1 (stereo not drawn) (as salt: oxalate) [Example 404, (1-{3-[benzothiazol-2-yl(1-methylpiperidin-4-yloxy)methyl]phenyl}pyrrolidin-3-yl)methanol]
115 °C	CC(=O)c1ccc(-c2cccc(C(OC3CCN(C)CC3)c3nc4ccccc4[nH]3)c2)cc1 (stereo not drawn) (as salt: oxalate) [Example 108, 1-{3′-[(1H-benzimidazol-2-yl)(1-methylpiperidin-4-yloxy)methyl]biphenyl-4-yl}ethanone]
125 °C	Cc1cc(F)c(C(OC2CCN(C)CC2)c2nc3ccccc3s2)c(F)c1 (stereo not drawn) (as salt: oxalate) [Example 531]
76 °C	CN1CCC(OC(c2cccc(OC3CCNCC3)c2)c2nc3ccccc3s2)CC1 (stereo not drawn) (as salt: oxalate) [Example 415, 2-{(1-methylpiperidin-4-yloxy)[3-(piperidin-4-yloxy)phenyl]methyl}benzothiazole]
121 °C	Cc1ccccc1COc1cccc(C(NC2CCN(C)CC2)c2nc3ccccc3[nH]2)c1 (stereo not drawn) (as salt: oxalate) [Example 129, {(1H-benzimidazol-2-yl)[3-(2-methylbenzyloxy)phenyl]methyl}(1-methylpiperidin-4-yl)amine]
76 °C	CN1CCC(OC(c2cccc(OCC3CCCN(C)C3)c2)c2nc3ccccc3s2)CC1 (stereo not drawn) (as salt: oxalate) [Example 379, 2-[[3-(1-methylpiperidin-3-ylmethoxy)phenyl](1-methylpiperidin-4-yloxy)methyl]benzothiazole]
113 °C	CN1CCC(OC(c2cccc(C#CCCCCN)c2)c2nc3ccccc3n2C)CC1 (stereo not drawn) (as salt: oxalate) [Example 480, 6-{3-[(1-methyl-1H-benzimidazol-2-yl)(1-methylpiperidin-4-yloxy)methyl]phenyl}hex-5-ynylamine]
178 to 179 °C	CN1CCC(OC(c2nc3ccccc3s2)c2ccccc2F)CC1 (stereo not drawn) (as salt: oxalate) [Example 6, 2-[(2-fluorophenyl)(1-methylpiperidin-4-yloxy)methyl]benzothiazole]
159 °C	CN1CCC(NC(c2cccc(OCc3cc(F)ccc3F)c2)c2nc3ccccc3[nH]2)CC1 (stereo not drawn) (as salt: oxalate) [Example 149, {(1H-benzimidazol-2-yl)[3-(2,5-difluoro-benzyloxy)phenyl]methyl}(1-methylpiperidin-4-yl)amine]
123 °C	CN1CCC(NC(c2cccc(OCCC3=CCC4CC3C4(C)C)c2)c2nc3ccccc3[nH]2)CC1 (stereo not drawn) (as salt: oxalate) [Example 181, ((1H-benzimidazol-2-yl)-{3-[2-(6,6-dimethyl-bicyclo[3.1.1]hept-2-en-2-yl)ethoxy]phenyl}methyl)(1-methylpiperidin-4-yl)amine]

melting point	Structure (SMILES)
106 °C	CN1CCC(OC(c2nc3ccccc3[nH]2)c2ccc(F)cc2F)CC1 (stereo not drawn) (as salt: oxalate) [Example 221, 2-[(2,4-difluorophenyl)(1-methylpiperidin-4-yloxy)methyl]-1H-benzimidazole]
165 °C	CN1CCC(OC(c2cc(F)cc(F)c2)c2nc3ccccc3s2)CC1 (stereo not drawn) (as salt: oxalate) [Example 15, 2-[(3,5-difluorophenyl)(1-methyl-piperidin-4-yloxy)methyl]benzothiazole]
135 °C	CN1CCC(OC(c2nc3cccc(F)c3[nH]2)c2cc(OC(F)(F)F)ccc2F)CC1 (stereo not drawn) (as salt: oxalate) [Example 529]
145 °C	COc1cc(F)cc(C(OC2CCN(C)CC2)c2nc3ccccc3s2)c1 (stereo not drawn) (as salt: oxalate) [Example 40, 2-[(3-fluoro-5-methoxyphenyl)(1-methylpiperidin-4-yloxy)methyl]benzothiazole]
117 °C	CN1CCC(OC(c2cccc(N3CC(O)C3)c2)c2nc3ccccc3s2)CC1 (stereo not drawn) (as salt: oxalate) [Example 403, 1-{3-[benzothiazol-2-yl(1-methylpiperidin-4-yloxy)methyl]phenyl}azetidin-3-ol]
125 °C	CN1CCC(OC(c2cccc(C#CCNC(=N)N)c2)c2nc3ccccc3s2)CC1 (stereo not drawn) (as salt: hydrochloride) [Example 373, N-(3-{3-[benzothiazol-2-yl(1-methylpiperidin-4-yloxy)methyl]phenyl}prop-2-ynyl)guanidine]
131 °C	CN1CCC(OC(c2cccc(N3CC4CN(C)CC4C3)c2)c2nc3ccccc3s2)CC1 (stereo not drawn) (as salt: oxalate) [Example 485]
80 °C	CSc1cccc(-c2cccc(C(OC3CCN(C)CC3)c3nc4ccccc4[nH]3)c2)c1 (stereo not drawn) (as salt: oxalate) [Example 116, 2-[(1-methylpiperidin-4-yloxy)(3′-methylsulfanylbiphenyl-3-yl)methyl]-1H-benzimidazole]
80 °C	CN1CCC(OC(c2cccc(SCCCCCCO)c2)c2nc3ccccc3s2)CC1 (stereo not drawn) (as salt: oxalate) [Example 292, 6-{3-[benzothiazol-2-yl(1-methylpiperidin-4-yloxy)methyl]phenylsulfanyl}hexan-1-ol]
125 °C	CN1CCC(OC(c2cccc(SCCNC(=N)N)c2)c2nc3ccccc3s2)CC1 (stereo not drawn) (as salt: hydrochloride) [Example 302, N-(2-{3-[benzothiazol-2-yl(1-methylpiperidin-4-yloxy)methyl]phenylsulfanyl}ethyl)guanidine]
198 °C	CN1CCC(OC(c2ccc3ccccc3c2)c2nc3ccccc3s2)CC1 (stereo not drawn) (as salt: hydrochloride) [Example 18, 2-[(1-methylpiperidin-4-yloxy)naphthalen-2-ylmethyl]benzothiazole]
150 °C	CN1CCC(OC(c2cccc(C#CCCCN)c2)c2nc3cc(F)ccc3[nH]2)CC1 (stereo not drawn) (as salt: oxalate) [Example 438, 5-{3-[(5-fluoro-1H-benzimidazol-2-yl)(1-methylpiperidin-4-yloxy)methyl]phenyl}pent-4-ynylamine]
112 °C	CN1CCC(NC(c2cccc(-c3ccccc3)c2)c2nc3ccccc3s2)CC1 (stereo not drawn) (as salt: oxalate) [Example 102, (benzothiazol-2-ylbiphenyl-3-ylmethyl)(1-methylpiperidin-4-yl)amine]
80 °C	CN1CCC(NC(c2cccc(C#CCCCCN)c2)c2nc3ccccc3s2)CC1 (stereo not drawn) (as salt: oxalate) [Example 420, {[3-(6-aminohex-1-ynyl)phenyl]benzothiazol-2-yl-methyl}(1-methylpiperidin-4-yl)amine]
160 °C	COc1cccc(C(NC2CCN(C)CC2)c2nc3ccccc3s2)c1 (stereo not drawn) (as salt: oxalate) [Example 25, [benzothiazol-2-yl(3-methoxyphenyl)methyl](1-methylpiperidin-4-yl)amine]
141 °C	CN1CCC(OC(c2cccc(OCCCCCN)c2)c2nc3ccccc3s2)CC1 (stereo not drawn) (as salt: oxalate) [Example 371, 5-{3-[benzothiazol-2-yl(1-methylpiperidin-4-yloxy)methyl]phenoxy}pentylamine]
175 °C	CN1CCC(OC(c2nc3ccccc3[nH]2)c2cc(I)ccc2F)CC1 (stereo not drawn) (as salt: oxalate) [Example 425, 2-[(2-fluoro-5-iodo-phenyl)(1-methylpiperidin-4-yloxy)methyl]-1H-benzimidazole]
126 °C	CN1CCC(OC(c2cccc(N3CC4CC(N)CC4C3)c2)c2nc3ccccc3s2)CC1 (stereo not drawn) (as salt: oxalate) [Example 471]
155 °C	CN1CCC(OC(c2ccc(OC(F)(F)F)cc2)c2nc3ccccc3s2)CC1 (stereo not drawn) (as salt: oxalate) [Example 24, 2-[(1-methylpiperidin-4-yloxy)(4-trifluoromethoxyphenyl)methyl]benzothiazole]

Structure (SMILES)	melting point
CCCCOc1cccc(C(NC2CCN(C)CC2)c2nc3ccccc3s2)c1 (stereo not drawn) (as salt: oxalate) [Example 91, [benzothiazol-2-yl(3-butoxyphenyl)methyl](1-methylpiperidin-4-yl)amine]	176 °C
